Source: PubChem BioAssay (NCI)
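These data come from cells grown in 96-well plates and exposed to compound for 48 hours at five concentrations. GI50 = concentration required for 50% inhibition of growth. TGI denotes the concentration required for complete inhibition of growth.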

Assays:
Assay in all cases: DTP human tumour cell line panel, 48 h
786-0 renal = system: 786-0 renal
A498 renal = system: A498 renal
A549 NSCLC = system: A549 NSCLC
ACHN renal = system: ACHN renal
BT-549 breast = system: BT-549 breast
CAKI-1 renal = system: CAKI-1 renal
COLO 205 colon = system: COLO 205 colon
DU-145 prostate = system: DU-145 prostate
EKVX NSCLC = system: EKVX NSCLC
HCC-2998 colon = system: HCC-2998 colon
HCT-116 colon = system: HCT-116 colon
HCT-15 colon = system: HCT-15 colon
HOP-62 NSCLC = system: HOP-62 NSCLC
HOP-92 NSCLC = system: HOP-92 NSCLC
HS 578T breast = system: HS 578T breast
HT29 colon = system: HT29 colon
IGROV1 ovarian = system: IGROV1 ovarian
K-562 leukemia = system: K-562 leukemia
KM12 colon = system: KM12 colon
LOX IMVI melanoma = system: LOX IMVI melanoma
M14 melanoma = system: M14 melanoma
MALME-3M melanoma = system: MALME-3M melanoma
MCF7 breast = system: MCF7 breast
MDA-MB-231 breast = system: MDA-MB-231 breast
MDA-MB-435 = system: MDA-MB-435
MOLT-4 leukemia = system: MOLT-4 leukemia
NCI-H23 lung = system: NCI-H23 lung
NCI-H460 lung = system: NCI-H460 lung
NCI-H522 lung = system: NCI-H522 lung
NCI/ADR-RES ovarian = system: NCI/ADR-RES ovarian
OVCAR-3 ovarian = system: OVCAR-3 ovarian
OVCAR-5 ovarian = system: OVCAR-5 ovarian
OVCAR-8 ovarian = system: OVCAR-8 ovarian
PC-3 prostate = system: PC-3 prostate
RPMI-8226 leukemia = system: RPMI-8226 leukemia
RXF 393 renal = system: RXF 393 renal
SF-268 CNS = system: SF-268 CNS
SF-295 CNS = system: SF-295 CNS
SF-539 CNS = system: SF-539 CNS
SK-MEL-2 melanoma = system: SK-MEL-2 melanoma
SK-MEL-28 melanoma = system: SK-MEL-28 melanoma
SK-MEL-5 melanoma = system: SK-MEL-5 melanoma
SK-OV-3 ovarian = system: SK-OV-3 ovarian
SN12C renal = system: SN12C renal
SNB-19 CNS = system: SNB-19 CNS
SNB-75 CNS = system: SNB-75 CNS
SR leukemia = system: SR leukemia
SW-620 colon = system: SW-620 colon
T-47D breast = system: T-47D breast
TK-10 renal = system: TK-10 renal
U251 CNS = system: U251 CNS
UACC-62 melanoma = system: UACC-62 melanoma
UO-31 renal = system: UO-31 renal

SMILES: Cc1cc(=O)oc2cc(OCCn3c(C)nn(-c4ccc(Cl)cc4)c3=O)ccc12
- GI50 (786-0 renal): 5.7 µM
- TGI (786-0 renal): > 100 µM
- GI50 (A498 renal): 1.13 µM
- TGI (A498 renal): 31.9 µM
- GI50 (A549 NSCLC): 6.07 µM
- TGI (A549 NSCLC): > 100 µM
- GI50 (ACHN renal): 5.59 µM
- TGI (ACHN renal): > 100 µM
- GI50 (BT-549 breast): 16.5 µM
- TGI (BT-549 breast): 99.4 µM
- GI50 (CAKI-1 renal): > 100 µM
- TGI (CAKI-1 renal): > 100 µM
- GI50 (COLO 205 colon): 2.39 µM
- TGI (COLO 205 colon): 7.34 µM
- GI50 (DU-145 prostate): 3.9 µM
- TGI (DU-145 prostate): > 100 µM
- GI50 (EKVX NSCLC): > 100 µM
- TGI (EKVX NSCLC): > 100 µM
- GI50 (HCC-2998 colon): 3.59 µM
- TGI (HCC-2998 colon): > 100 µM
- GI50 (HCT-116 colon): 3.57 µM
- TGI (HCT-116 colon): > 100 µM
- GI50 (HCT-15 colon): 3.2 µM
- TGI (HCT-15 colon): > 100 µM
- GI50 (HOP-62 NSCLC): 3.05 µM
- TGI (HOP-62 NSCLC): 32.9 µM
- GI50 (HOP-92 NSCLC): 16.1 µM
- TGI (HOP-92 NSCLC): > 100 µM
- GI50 (HS 578T breast): 2.82 µM
- TGI (HS 578T breast): > 100 µM
- GI50 (HT29 colon): 3.82 µM
- TGI (HT29 colon): > 100 µM
- GI50 (IGROV1 ovarian): 35 µM
- TGI (IGROV1 ovarian): > 100 µM
- GI50 (K-562 leukemia): 1.29 µM
- TGI (K-562 leukemia): > 100 µM
- GI50 (KM12 colon): 1.66 µM
- TGI (KM12 colon): > 100 µM
- GI50 (LOX IMVI melanoma): 4.83 µM
- TGI (LOX IMVI melanoma): > 100 µM
- GI50 (M14 melanoma): 2.36 µM
- TGI (M14 melanoma): > 100 µM
- GI50 (MALME-3M melanoma): 3.85 µM
- TGI (MALME-3M melanoma): > 100 µM
- GI50 (MCF7 breast): 2.7 µM
- TGI (MCF7 breast): > 100 µM
- GI50 (MDA-MB-231 breast): 4.53 µM
- TGI (MDA-MB-231 breast): > 100 µM
- GI50 (MDA-MB-435): 0.269 µM
- TGI (MDA-MB-435): 0.837 µM
- GI50 (MOLT-4 leukemia): 4.71 µM
- TGI (MOLT-4 leukemia): > 100 µM
- GI50 (NCI-H23 lung): 2.83 µM
- TGI (NCI-H23 lung): > 100 µM
- GI50 (NCI-H460 lung): 2.8 µM
- TGI (NCI-H460 lung): > 100 µM
- GI50 (NCI-H522 lung): 3.85 µM
- TGI (NCI-H522 lung): 33.2 µM
- GI50 (NCI/ADR-RES ovarian): 1.64 µM
- TGI (NCI/ADR-RES ovarian): > 100 µM
- GI50 (OVCAR-3 ovarian): 3.25 µM
- TGI (OVCAR-3 ovarian): 15.2 µM
- GI50 (OVCAR-5 ovarian): 21.9 µM
- TGI (OVCAR-5 ovarian): > 100 µM
- GI50 (OVCAR-8 ovarian): 5.17 µM
- TGI (OVCAR-8 ovarian): > 100 µM
- GI50 (PC-3 prostate): 8.13 µM
- TGI (PC-3 prostate): > 100 µM
- GI50 (RPMI-8226 leukemia): 11 µM
- TGI (RPMI-8226 leukemia): > 100 µM
- GI50 (RXF 393 renal): 2.76 µM
- TGI (RXF 393 renal): 30 µM
- GI50 (SF-268 CNS): 13.6 µM
- TGI (SF-268 CNS): > 100 µM
- GI50 (SF-295 CNS): 4.73 µM
- TGI (SF-295 CNS): > 100 µM
- GI50 (SF-539 CNS): 4.06 µM
- TGI (SF-539 CNS): 47.3 µM
- GI50 (SK-MEL-2 melanoma): 18.2 µM
- TGI (SK-MEL-2 melanoma): > 100 µM
- GI50 (SK-MEL-28 melanoma): 3.13 µM
- TGI (SK-MEL-28 melanoma): > 100 µM
- GI50 (SK-MEL-5 melanoma): 0.848 µM
- TGI (SK-MEL-5 melanoma): > 100 µM
- GI50 (SK-OV-3 ovarian): 3.36 µM
- TGI (SK-OV-3 ovarian): 48.8 µM
- GI50 (SN12C renal): 5.54 µM
- TGI (SN12C renal): > 100 µM
- GI50 (SNB-19 CNS): 5.37 µM
- TGI (SNB-19 CNS): > 100 µM
- GI50 (SNB-75 CNS): 2.22 µM
- TGI (SNB-75 CNS): 15.1 µM
- GI50 (SR leukemia): 0.497 µM
- TGI (SR leukemia): 6.67 µM
- GI50 (SW-620 colon): 2.2 µM
- TGI (SW-620 colon): > 100 µM
- GI50 (T-47D breast): 7.55 µM
- TGI (T-47D breast): > 100 µM
- GI50 (TK-10 renal): 13.4 µM
- TGI (TK-10 renal): 88.4 µM
- GI50 (U251 CNS): 4.18 µM
- TGI (U251 CNS): 72.3 µM
- GI50 (UACC-62 melanoma): 1.99 µM
- TGI (UACC-62 melanoma): > 100 µM
- GI50 (UO-31 renal): 12.7 µM
- TGI (UO-31 renal): > 100 µM
